Results: ChEMBL document CHEMBL3351767, “The discovery of Polo-like kinase 4 inhibitors: design and optimization of spiro[cyclopropane-1,3'[3H]indol]-2'(1'H).ones as orally bioavailable antitumor agents” (J Med Chem, 2015)
Converted amounts (≈) assume the structure as drawn.

Columns and labels:
[1] = biological target: T1, Receptor-type tyrosine-protein kinase FLT3 (Homo sapiens, UniProt P36888); experiment: Inhibition of FLT3 (unknown origin) by FRET-based homogeneous assay
T1 sequence (P36888 whole entry): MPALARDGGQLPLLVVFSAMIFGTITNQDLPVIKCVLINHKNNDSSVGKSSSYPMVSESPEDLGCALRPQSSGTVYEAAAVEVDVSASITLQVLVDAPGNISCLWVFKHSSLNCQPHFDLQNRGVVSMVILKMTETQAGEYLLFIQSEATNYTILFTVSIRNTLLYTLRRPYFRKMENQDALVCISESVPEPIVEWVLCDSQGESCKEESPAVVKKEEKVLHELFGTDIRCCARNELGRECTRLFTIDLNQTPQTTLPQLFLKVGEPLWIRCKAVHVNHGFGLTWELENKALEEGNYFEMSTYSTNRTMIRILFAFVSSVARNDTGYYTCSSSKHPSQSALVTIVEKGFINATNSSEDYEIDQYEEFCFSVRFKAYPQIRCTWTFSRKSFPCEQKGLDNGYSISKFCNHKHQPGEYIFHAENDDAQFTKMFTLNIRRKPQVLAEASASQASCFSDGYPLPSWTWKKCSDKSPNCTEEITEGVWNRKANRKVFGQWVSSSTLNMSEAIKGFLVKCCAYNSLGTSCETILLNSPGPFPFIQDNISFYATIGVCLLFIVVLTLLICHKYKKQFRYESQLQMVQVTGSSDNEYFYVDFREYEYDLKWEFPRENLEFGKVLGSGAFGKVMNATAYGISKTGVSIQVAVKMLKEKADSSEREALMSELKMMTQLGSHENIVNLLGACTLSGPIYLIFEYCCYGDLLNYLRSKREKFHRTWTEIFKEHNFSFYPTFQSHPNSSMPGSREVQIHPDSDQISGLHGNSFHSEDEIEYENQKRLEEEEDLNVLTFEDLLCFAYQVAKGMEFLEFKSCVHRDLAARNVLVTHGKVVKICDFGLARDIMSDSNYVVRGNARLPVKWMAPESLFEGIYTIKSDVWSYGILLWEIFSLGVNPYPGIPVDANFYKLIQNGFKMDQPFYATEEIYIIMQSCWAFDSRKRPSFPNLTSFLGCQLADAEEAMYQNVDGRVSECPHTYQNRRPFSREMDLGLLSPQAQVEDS

[2] = biological target: Vascular endothelial growth factor receptor 2 (Homo sapiens, UniProt P35968); experiment: Inhibition of KDR (unknown origin) by FRET-based homogeneous assay
Cytochrome P450 1A2 = biological target: T2, Cytochrome P450 1A2 (Homo sapiens, UniProt P05177); experiment: (§1) Inhibition of CYP1A2 (unknown origin) using CEC substrate after 15 mins by fluorescence assay; format: ADME
T2 sequence (P05177 whole entry): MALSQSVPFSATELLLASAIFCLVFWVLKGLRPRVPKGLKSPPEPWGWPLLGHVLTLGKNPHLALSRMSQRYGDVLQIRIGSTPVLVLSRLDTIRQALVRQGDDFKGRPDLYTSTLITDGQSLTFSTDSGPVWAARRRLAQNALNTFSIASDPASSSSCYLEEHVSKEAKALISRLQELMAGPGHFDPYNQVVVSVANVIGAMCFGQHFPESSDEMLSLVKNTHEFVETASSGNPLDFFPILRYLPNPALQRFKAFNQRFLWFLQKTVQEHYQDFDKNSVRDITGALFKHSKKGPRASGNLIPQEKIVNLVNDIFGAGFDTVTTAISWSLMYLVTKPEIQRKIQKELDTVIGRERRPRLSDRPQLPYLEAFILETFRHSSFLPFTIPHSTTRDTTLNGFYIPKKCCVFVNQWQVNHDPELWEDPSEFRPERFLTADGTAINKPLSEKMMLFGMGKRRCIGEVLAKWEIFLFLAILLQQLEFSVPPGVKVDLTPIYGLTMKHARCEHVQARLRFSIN

Cytochrome P450 2C9 = Cytochrome P450 2C9 (Homo sapiens, UniProt P11712); experiment: Inhibition of CYP2C9 (unknown origin) using MFC substrate after 45 mins by fluorescence assay; format: ADME
Cytochrome P450 2C19 = Cytochrome P450 2C19 (Homo sapiens, UniProt P33261); experiment: Inhibition of CYP2C19 (unknown origin) using MFC substrate after 30 mins by fluorescence assay; format: ADME
Cytochrome P450 2D6 = Cytochrome P450 2D6 (Homo sapiens, UniProt P10635); experiment: Inhibition of CYP2D6 (unknown origin) using AMMC substrate after 45 mins by fluorescence assay; format: ADME
Cytochrome P450 3A4 = Cytochrome P450 3A4 (Homo sapiens, UniProt P08684); experiment: Inhibition of CYP3A4 (unknown origin) using BFC substrate after 30 mins by fluorescence assay; format: ADME
MCF7 = experiment: Cytotoxicity against human MCF7 cells after 5 days by SRB assay; format: functional; settings: MCF7, 120 h
MDA-MB-468 = experiment: Cytotoxicity against human MDA-MB-468 cells after 5 days by SRB assay; format: functional; settings: MDA-MB-468, 120 h
MDA-MB-231 = experiment: Cytotoxicity against human MDA-MB-231 cells after 5 days by SRB assay; format: functional; settings: MDA-MB-231, 120 h
[3] = Cytotoxicity against human SKBR3 cells after 5 days by SRB assay; format: functional; settings: SK-BR-3, 120 h
[4] = Cmax in SCID mouse at 25 mg/kg, po by LCMS/MS method; format: ADME, organism-based; design: dose 25 mg/kg, route oral; settings: in vivo
[5] = AUC in SCID mouse at 25 mg/kg, po by LCMS/MS method; format: ADME, organism-based; design: dose 25 mg/kg, route oral; settings: plasma
Mus musculus = experiment: Toxicity in human MDA-MB-468 cells xenografted mouse assessed as reduction in body weight at 25 mg/kg, po QD for 21 days; format: organism-based; design: dose 25 mg/kg, route oral; settings: in vivo, 504 h
[6] = biological target: T3, Serine/threonine-protein kinase PLK4 (Homo sapiens, UniProt O00444); experiment: Inhibition of human N-terminal GST-tagged PLK4 (1 to 391 residues) expressed in Escherichia coli incubated for 30 mins by ELISA method
T3 sequence (O00444 whole entry): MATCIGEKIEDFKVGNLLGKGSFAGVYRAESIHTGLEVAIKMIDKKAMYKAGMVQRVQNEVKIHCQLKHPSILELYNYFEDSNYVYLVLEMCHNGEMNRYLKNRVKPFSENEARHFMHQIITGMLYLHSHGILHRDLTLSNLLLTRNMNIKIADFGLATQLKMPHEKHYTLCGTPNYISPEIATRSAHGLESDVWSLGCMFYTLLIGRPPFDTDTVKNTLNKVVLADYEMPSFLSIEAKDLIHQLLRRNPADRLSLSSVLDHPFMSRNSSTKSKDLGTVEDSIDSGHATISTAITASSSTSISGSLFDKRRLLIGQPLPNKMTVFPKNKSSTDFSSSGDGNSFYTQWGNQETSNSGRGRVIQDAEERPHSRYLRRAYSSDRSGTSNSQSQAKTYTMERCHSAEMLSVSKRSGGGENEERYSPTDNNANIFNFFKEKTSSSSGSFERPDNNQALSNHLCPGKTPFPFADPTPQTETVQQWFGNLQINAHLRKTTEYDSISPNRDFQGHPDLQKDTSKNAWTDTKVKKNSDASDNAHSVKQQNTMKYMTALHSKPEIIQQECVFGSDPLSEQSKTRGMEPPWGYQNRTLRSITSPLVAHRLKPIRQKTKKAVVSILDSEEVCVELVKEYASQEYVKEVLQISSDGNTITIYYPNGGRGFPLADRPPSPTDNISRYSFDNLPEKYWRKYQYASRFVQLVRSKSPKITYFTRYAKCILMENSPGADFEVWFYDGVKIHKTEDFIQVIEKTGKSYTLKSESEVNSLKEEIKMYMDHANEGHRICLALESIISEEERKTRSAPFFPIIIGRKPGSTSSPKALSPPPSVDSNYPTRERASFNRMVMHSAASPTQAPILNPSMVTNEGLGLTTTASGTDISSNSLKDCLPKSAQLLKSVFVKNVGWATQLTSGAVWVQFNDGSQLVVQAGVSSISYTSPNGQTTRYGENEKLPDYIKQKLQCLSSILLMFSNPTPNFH

CYP1A2 = biological target: T4, CYP1A2 (Homo sapiens, UniProt P05177); experiment: as §1; format: ADME; settings: probe CEC
T4 sequence (P05177 whole entry): T2 sequence (P05177 whole entry)

[7] = Aqueous solubility at pH 7.4; format: physicochemical; settings: buffer
[8] = Protein binding in plasma (unknown origin); format: ADME, cell-free; settings: read-out: PPB (converted)
[9] = Half life in mouse liver microsomes at 1 uM in presence of NADPH by LC-MS method; format: ADME
[10] = Half life in human liver microsomes at 1 uM in presence of NADPH by LC-MS method; format: ADME
[11] = Cmax in SCID mouse at 50 mg/kg, ip after 8 hrs by LCMS/MS method; format: ADME, organism-based; design: dose 50 mg/kg, route intraperitoneal; settings: in vivo
[12] = biological target: Serine/threonine-protein kinase PLK1 (Homo sapiens, UniProt P53350); experiment: Inhibition of PLK1 (unknown origin) by FRET-based homogeneous assay
[13] = biological target: Serine/threonine-protein kinase PLK2 (Homo sapiens, UniProt Q9NYY3); experiment: Inhibition of PLK2 (unknown origin) by FRET-based homogeneous assay
[14] = biological target: Serine/threonine-protein kinase PLK3 (Homo sapiens, UniProt Q9H4B4); experiment: Inhibition of PLK3 (unknown origin) by FRET-based homogeneous assay
Aurora kinase B = Aurora kinase B (Homo sapiens, UniProt Q96GD4); experiment: Inhibition of AURKB (unknown origin) by FRET-based homogeneous assay
[15] = AUC in SCID mouse at 50 mg/kg, ip after 8 hrs by LCMS/MS method; format: ADME, organism-based; design: time < 8 hr, dose 50 mg/kg, route intraperitoneal; settings: plasma

Sequence of Cytochrome P450 2D6 (P10635 whole entry): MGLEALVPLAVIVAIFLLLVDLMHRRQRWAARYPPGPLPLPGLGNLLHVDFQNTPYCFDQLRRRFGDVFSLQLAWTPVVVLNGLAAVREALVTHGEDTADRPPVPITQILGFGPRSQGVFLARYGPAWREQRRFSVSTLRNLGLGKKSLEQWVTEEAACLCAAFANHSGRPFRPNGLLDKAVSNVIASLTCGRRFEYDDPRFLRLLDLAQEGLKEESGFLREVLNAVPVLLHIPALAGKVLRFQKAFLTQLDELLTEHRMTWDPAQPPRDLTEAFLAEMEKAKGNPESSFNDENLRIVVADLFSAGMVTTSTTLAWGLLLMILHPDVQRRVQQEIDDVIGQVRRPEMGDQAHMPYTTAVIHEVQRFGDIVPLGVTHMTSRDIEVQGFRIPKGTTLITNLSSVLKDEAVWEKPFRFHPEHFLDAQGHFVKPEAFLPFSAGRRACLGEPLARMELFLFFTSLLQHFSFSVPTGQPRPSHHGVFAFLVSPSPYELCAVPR
Sequence of Cytochrome P450 2C9 (P11712 whole entry): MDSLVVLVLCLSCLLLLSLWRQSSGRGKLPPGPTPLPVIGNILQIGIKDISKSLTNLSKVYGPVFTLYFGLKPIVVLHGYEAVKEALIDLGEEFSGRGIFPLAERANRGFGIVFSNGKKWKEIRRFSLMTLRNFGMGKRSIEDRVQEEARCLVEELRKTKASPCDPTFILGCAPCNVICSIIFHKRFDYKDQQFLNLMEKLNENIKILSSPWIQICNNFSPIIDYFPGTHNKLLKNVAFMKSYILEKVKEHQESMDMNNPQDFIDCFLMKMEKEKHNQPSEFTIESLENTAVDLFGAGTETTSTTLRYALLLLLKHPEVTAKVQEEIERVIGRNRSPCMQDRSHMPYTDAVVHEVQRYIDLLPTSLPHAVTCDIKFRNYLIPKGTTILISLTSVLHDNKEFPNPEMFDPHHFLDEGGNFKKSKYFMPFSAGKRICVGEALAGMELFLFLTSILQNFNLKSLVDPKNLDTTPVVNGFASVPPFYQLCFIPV
Sequence of Cytochrome P450 3A4 (P08684 whole entry): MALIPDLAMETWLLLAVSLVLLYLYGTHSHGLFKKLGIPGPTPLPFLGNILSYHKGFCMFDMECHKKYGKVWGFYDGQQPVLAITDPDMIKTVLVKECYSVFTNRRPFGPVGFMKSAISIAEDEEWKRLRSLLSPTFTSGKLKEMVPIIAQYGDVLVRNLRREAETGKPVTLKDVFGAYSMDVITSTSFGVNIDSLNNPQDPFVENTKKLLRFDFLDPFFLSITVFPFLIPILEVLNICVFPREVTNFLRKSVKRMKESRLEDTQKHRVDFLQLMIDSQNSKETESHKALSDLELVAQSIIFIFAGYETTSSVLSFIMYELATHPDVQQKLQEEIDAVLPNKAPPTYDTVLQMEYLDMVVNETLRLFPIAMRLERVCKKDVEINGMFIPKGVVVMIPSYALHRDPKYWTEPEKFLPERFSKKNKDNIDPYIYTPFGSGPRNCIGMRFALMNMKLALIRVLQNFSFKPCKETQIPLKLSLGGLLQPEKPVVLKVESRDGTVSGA
Sequence of Vascular endothelial growth factor receptor 2 (P35968 whole entry): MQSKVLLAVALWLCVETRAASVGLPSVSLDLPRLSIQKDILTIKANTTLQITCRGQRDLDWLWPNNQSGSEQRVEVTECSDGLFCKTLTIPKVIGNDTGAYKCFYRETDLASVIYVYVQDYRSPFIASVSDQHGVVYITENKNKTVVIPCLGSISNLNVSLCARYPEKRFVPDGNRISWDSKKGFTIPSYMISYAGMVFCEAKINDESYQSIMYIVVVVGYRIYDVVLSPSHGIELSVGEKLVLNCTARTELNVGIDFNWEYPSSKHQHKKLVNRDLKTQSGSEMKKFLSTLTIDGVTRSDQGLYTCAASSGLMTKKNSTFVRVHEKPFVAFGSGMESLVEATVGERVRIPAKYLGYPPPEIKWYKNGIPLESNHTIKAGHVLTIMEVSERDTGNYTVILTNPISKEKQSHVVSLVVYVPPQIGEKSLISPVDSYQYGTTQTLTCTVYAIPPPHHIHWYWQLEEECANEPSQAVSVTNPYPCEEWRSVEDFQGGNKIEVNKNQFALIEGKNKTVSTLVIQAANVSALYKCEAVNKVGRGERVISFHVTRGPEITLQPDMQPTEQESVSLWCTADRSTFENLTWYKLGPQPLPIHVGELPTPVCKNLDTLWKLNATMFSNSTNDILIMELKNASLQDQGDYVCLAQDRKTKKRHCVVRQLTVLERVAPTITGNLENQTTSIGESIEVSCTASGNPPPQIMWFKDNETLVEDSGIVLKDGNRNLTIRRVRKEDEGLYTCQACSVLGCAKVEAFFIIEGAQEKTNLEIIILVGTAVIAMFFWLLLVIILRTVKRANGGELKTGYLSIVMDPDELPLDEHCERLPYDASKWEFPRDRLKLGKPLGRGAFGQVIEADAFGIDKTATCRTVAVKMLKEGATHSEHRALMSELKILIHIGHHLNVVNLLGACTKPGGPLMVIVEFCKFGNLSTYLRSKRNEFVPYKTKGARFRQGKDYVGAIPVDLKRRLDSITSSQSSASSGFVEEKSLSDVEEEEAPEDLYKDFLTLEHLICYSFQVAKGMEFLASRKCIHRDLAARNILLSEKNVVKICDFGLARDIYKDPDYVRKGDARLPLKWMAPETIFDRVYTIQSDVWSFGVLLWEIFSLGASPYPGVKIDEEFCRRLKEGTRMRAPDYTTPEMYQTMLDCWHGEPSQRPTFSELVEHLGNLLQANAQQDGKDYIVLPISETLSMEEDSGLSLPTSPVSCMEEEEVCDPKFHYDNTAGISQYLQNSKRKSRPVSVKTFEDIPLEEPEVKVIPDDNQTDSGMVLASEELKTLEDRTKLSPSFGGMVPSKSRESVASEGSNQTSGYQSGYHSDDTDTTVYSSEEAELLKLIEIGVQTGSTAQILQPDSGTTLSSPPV
Sequence of Cytochrome P450 2C19 (P33261 whole entry): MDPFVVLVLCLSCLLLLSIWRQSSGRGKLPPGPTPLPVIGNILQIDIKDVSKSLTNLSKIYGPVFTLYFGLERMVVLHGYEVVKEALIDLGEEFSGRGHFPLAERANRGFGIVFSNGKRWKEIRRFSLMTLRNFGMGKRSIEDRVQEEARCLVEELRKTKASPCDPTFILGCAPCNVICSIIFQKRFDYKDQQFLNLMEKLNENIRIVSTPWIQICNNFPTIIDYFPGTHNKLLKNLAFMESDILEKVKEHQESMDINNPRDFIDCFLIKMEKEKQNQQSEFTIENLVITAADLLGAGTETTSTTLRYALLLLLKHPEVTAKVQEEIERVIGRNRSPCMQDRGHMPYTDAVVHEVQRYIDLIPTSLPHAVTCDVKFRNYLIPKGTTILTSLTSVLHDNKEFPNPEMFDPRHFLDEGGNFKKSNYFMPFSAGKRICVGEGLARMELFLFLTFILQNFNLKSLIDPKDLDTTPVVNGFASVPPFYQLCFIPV
Sequence of Serine/threonine-protein kinase PLK3 (Q9H4B4 whole entry): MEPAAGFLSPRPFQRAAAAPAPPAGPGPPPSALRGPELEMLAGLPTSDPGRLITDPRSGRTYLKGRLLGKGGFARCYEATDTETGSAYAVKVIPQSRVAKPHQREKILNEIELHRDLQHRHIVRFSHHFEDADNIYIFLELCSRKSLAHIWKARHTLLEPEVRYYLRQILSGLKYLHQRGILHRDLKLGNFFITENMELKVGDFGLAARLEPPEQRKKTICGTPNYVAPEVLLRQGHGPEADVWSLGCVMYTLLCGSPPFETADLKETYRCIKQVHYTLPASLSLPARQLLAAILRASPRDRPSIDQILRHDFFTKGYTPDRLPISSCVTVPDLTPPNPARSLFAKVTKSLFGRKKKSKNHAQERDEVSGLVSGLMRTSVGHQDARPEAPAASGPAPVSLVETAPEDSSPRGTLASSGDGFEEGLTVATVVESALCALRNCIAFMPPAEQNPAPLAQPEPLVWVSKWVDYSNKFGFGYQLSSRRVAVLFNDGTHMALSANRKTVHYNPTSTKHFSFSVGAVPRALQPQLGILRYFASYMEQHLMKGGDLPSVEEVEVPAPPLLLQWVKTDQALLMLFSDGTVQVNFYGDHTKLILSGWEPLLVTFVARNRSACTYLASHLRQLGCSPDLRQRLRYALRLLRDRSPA
Sequence of Serine/threonine-protein kinase PLK2 (Q9NYY3 whole entry): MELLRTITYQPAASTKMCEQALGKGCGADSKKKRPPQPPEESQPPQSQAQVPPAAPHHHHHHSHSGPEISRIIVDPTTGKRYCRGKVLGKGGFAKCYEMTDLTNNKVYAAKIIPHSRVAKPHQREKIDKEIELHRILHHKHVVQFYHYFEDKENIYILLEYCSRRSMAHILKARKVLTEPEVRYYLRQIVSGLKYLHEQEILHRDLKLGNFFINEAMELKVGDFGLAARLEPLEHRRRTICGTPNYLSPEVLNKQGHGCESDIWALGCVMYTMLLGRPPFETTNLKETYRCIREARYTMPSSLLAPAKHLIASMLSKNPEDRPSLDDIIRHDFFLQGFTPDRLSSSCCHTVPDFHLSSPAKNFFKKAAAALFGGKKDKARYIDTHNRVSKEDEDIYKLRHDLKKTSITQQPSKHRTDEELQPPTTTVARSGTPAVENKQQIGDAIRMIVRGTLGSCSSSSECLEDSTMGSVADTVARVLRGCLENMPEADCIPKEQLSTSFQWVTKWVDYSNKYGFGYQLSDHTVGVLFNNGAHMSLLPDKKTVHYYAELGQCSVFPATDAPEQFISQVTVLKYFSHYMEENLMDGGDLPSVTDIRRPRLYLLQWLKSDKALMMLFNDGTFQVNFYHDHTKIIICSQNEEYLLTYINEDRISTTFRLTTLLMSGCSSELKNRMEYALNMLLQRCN
Sequence of Aurora kinase B (Q96GD4 whole entry): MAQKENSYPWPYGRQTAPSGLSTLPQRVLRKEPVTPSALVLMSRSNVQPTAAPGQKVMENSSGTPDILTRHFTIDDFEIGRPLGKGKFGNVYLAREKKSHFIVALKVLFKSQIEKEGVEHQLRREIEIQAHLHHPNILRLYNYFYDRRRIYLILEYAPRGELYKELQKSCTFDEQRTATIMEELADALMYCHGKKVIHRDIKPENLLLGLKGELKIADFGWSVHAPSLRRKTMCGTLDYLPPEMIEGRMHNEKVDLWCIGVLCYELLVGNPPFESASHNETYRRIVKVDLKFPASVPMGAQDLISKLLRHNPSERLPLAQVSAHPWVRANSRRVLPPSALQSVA

Row | IC50 [1] | IC50 [2] | IC50 (Cytochrome P450 1A2) | IC50 (Cytochrome P450 2C9) | IC50 (Cytochrome P450 2C19) | IC50 (Cytochrome P450 2D6) | IC50 (Cytochrome P450 3A4) | IC50 [6] | IC50 at 15 min (CYP1A2) | solubility [7] | fraction unbound [8] | half-life at 1 µM [9] | half-life at 1 µM [10] | Cmax [11] | AUC at 8 h [15] | Structure (SMILES) | GI50 (MCF7) | GI50 (MDA-MB-468) | further results
1 | 19 nM | 910 nM | > 10000 nM | 850 nM | 750 nM | > 10000 nM | > 1000 nM |  |  |  |  |  |  |  |  | COc1ccc2c(c1)[C@]1(C[C@H]1c1ccc3c(/C=C/c4ccc(CN(C)C)cc4)n[nH]c3c1)C(=O)N2 (relative stereo) | < 1 nM | 10 nM | GI50 (MDA-MB-231): < 10 nM; GI50 [3]: 6400 nM; Cmax [4]: 350 ng/mL; AUC [5]: 730 ng·h/mL; Activity (Mus musculus): Non-toxic
2 | 35 nM | 34 nM |  |  |  | 20000 nM | 1000 nM | 2.4 nM | > 10000 nM | 0.21 µg/mL (≈ 0.576 µM) | 0.011 | 6 min | 29 min | < 10 ng/mL |  | O=C1Nc2ccccc2/C1=C\c1ccc2c(/C=C/c3ccncc3)n[nH]c2c1 |  |  | IC50 [12]: > 100000 nM; IC50 [13]: > 100000 nM; IC50 [14]: > 100000 nM; IC50 (Aurora kinase B): 24 nM
3 | 35 nM |  |  | 1400 nM |  |  | 940 nM | 4 nM | > 10000 nM | < 0.1 µg/mL | 0.016 | 7 min | 40 min | 870 ng/mL | 830 ng·h/mL | CN(C)Cc1ccc(/C=C/c2n[nH]c3cc(/C=C4/C(=O)Nc5ccccc54)ccc23)cc1 | 7 nM | 12 nM | 
4 | 140 nM | 2500 nM | 50 nM | 500 nM | 210 nM | > 1000 nM | 10000 nM |  |  | 0.7 µg/mL (≈ 2.68 µM) | < 0.001 | 5 min | 54 min | 11 ng/mL | 61 ng·h/mL | O=C1Nc2ccccc2/C1=C/c1ccc2cn[nH]c2c1 | 5300 nM | 4600 nM | 
